According to US20250352477A1, “FORMULATIONS AND ORAL DOSAGE FORMS OF LIPOPHILIC AGENTS” (CANNBIOREX PHARMA LTD, priority 2022, published 2025):
Read-outs that look alike come from different tables or passages of the source.

Assay: Pharmacokinetic study of LPNF-CBD formulations in freely moving rat model
Format: in vivo
Settings: CBD 15 mg/kg; for half-life: read-out: Elimination half-life (converted)
Protocol: For pharmacokinetic analysis of LPNF-CBD powders, male Wistar rats were tested in […] groups: a control group received LPNF-CBD prepared as in EXAMPLE 2 (N=5) with CBD concentration 2 mg/mL, administered by oral gavage; experimental groups received LPNF-CBD Polypore or Neusilin US2 powders dispersed in water (N=4 and N=5, respectively) with LPNF-CBD concentration of 20 mg/ml, administered by oral gavage; control groups received CBD in propylene glycol:ethanol:water (4.5:4.5:1 v/v) with CBD concentration of 3 mg/mL, administered by oral gavage or intravenously (N=5 and N=3, respectively). In all groups, the administered CBD dose was 15 mg/kg. For pharmacokinetic (PK) studies, blood samples (0.35 mL) were taken at 0, 0.3 h, 0.6 h, 1 h, 1.5 h, 2 h, 3 h, 4 h and 6 h time points. Plasma was separated by centrifugation and stored frozen until LCMS analysis.
PK study was conducted in the freely moving rat model (in-vivo) in five groups of animals receiving: (1) CBD in propylene glycol:ethanol:water solution; (2) LPNF-CBD, (3) LPNF-CBD Polypore and (4) LPNF-CBD Neusilin powders dispersed in water; all administered by oral gavage; and (5) CBD in propylene glycol:ethanol:water solution administered IV.

[1] = male, Wistar, in vivo, oral gavage

For C=C(C)[C@@H]1CCC(C)=C[C@H]1c1c(O)cc(CCCCC)cc1O [CBD, Cannabidiol], which Liner terminal slope (IV) is on record?
The Liner terminal slope was 0.2 h⁻¹.

What about the half-life (male, Wistar, in vivo, IV) of the same compound?
The half-life was 4.1 h.

And the AUC [1]?
The AUC was 158 ng·h/mL.

What about the half-life [1] of the same compound?
The half-life was 3.2 h.

And the Liner terminal slope (oral gavage)?
Its Liner terminal slope is 0.2 h⁻¹.
